Laboratory results published in ChEMBL document CHEMBL5233249, “Recent advancements in the development of heterocyclic anti-inflammatory agents” (Eur J Med Chem, 2020).
pIC50: −log10 of the molar value.

Legend:
[1] = system: Mus musculus; assay: Anti-inflammatory activity in Swiss albino mouse of Carrageenan-induced paw edema assessed as reduction in inflammation at 100 mg/kg measured after 4 hr relative to control; type: functional; parameters: scale not given: the % may be the effect or the level left
[2] = system: Mus musculus; assay: Anti-inflammatory activity in Swiss albino mouse of Carrageenan-induced paw edema assessed as reduction in inflammation at 100 mg/kg measured after 3 hr relative to control; type: functional; parameters: scale not given: the % may be the effect or the level left
[3] = system: Mus musculus; assay: Anti-inflammatory activity in Swiss albino mouse of Carrageenan-induced pleurisy assessed as reduction in migration of leukocytes at 100 mg/kg, po relative to control; type: functional; parameters: scale not given: the % may be the effect or the level left
[4] = system: Mus musculus; assay: Anti-inflammatory activity in Swiss albino mouse of Carrageenan-induced paw edema assessed as reduction in paw edema at 100 mg/kg measured after 4 hr (reference value: 126.7 +/- 6.9 uL); type: functional
[5] = system: Mus musculus; assay: Anti-inflammatory activity in Swiss albino mouse of Carrageenan-induced paw edema assessed as reduction in inflammation at 100 mg/kg measured after 2 hr relative to control; type: functional; parameters: scale not given: the % may be the effect or the level left
[6] = system: Mus musculus; assay: Anti-inflammatory activity in Swiss albino mouse of Carrageenan-induced paw edema assessed as reduction in paw edema at 100 mg/kg measured after 3 hr (reference value: 130 +/- 3.8 uL); type: functional
[7] = system: Mus musculus; assay: Anti-inflammatory activity in Swiss albino mouse of Carrageenan-induced paw edema assessed as reduction in inflammation at 100 mg/kg measured after 1 hr relative to control; type: functional; parameters: scale not given: the % may be the effect or the level left
[8] = system: Mus musculus; assay: Anti-inflammatory activity in Swiss albino mouse of Carrageenan-induced paw edema assessed as reduction in paw edema at 100 mg/kg measured after 2 hr (reference value: 140 +/- 6.3 uL); type: functional
[9] = system: Mus musculus; assay: Anti-inflammatory activity in Swiss albino mouse of Carrageenan-induced pleurisy assessed as reduction in migration of leukocytes at 100 mg/kg, po (reference value: 5.2 +/- 0.34); type: functional
[10] = system: Mus musculus; assay: Anti-inflammatory activity in Swiss albino mouse of Carrageenan-induced pleurisy assessed as reduction in TNFalpha levels at 100 mg/kg, po; type: functional
[11] = system: Mus musculus; assay: Anti-inflammatory activity in Swiss albino mouse of Carrageenan-induced pleurisy assessed as reduction in total leukocytes at 50 mg/kg, po relative to control; type: functional; parameters: scale not given: the % may be the effect or the level left
[12] = system: Mus musculus; assay: Anti-inflammatory activity in Swiss albino mouse of Carrageenan-induced paw edema assessed as reduction in paw edema at 100 mg/kg measured after 1 hr (reference value: 142.5 +/- 5.6 uL); type: functional
[13] = system: RAW264.7; assay: Anti-inflammatory activity in mouse RAW264.7 cells assessed as inhibition of LPS-induced reduction in cytokine levels relative to control; type: functional; parameters: scale not given: the % may be the effect or the level left
[14] = system: RAW264.7; assay: Anti-inflammatory activity in mouse RAW264.7 cells assessed as inhibition of LPS-induced IL-6 production preincubated for 1 hr followed by LPS addition and measured after 24 hrs by EIA relative to control; type: functional; parameters: scale not given: the % may be the effect or the level left
[15] = system: RAW264.7; assay: Anti-inflammatory activity in mouse RAW264.7 cells assessed as inhibition of LPS-induced TNFalpha production relative to control; type: functional; parameters: scale not given: the % may be the effect or the level left
[16] = system: Rattus norvegicus; assay: Analgesic activity in Carrageenan- induced paw edema in PO dosed Swiss albino rat assessed as protection of hind paw measured after 2 hrs at 20 mg/kg relative to control; type: functional
[17] = system: Rattus norvegicus; assay: Anti-ulcerative activity in Carrageenan-induced Sprague-Dawley rat ulcer model assessed as inhibition of ulcer index at 10 mg/kg,po; type: functional
[18] = system: Rattus norvegicus; assay: Anti-inflammatory activity in Carrageenan-induced-Wistar albino rat model assessed as reduction in volume of paw edema measured after 3 hrs; type: functional
[19] = system: Rattus norvegicus; assay: Anti-inflammatory activity against carrageenan-induced Albino Wistar rat paw edema model assessed as inhibition of rat paw edema at 50 mg/kg, po after 3 hrs relative to control; type: functional; parameters: scale not given: the % may be the effect or the level left
[20] = system: Rattus norvegicus; assay: Anti-inflammatory activity in Carrageenan-induced-Wistar albino rat model assessed as reduction in volume of paw edema measured after 4 hrs; type: functional
[21] = system: Rattus norvegicus; assay: Anti-inflammatory activity against formalin-induced foot paw edema in PO dosed rat at 10 mg/kg assessed as inhibition of edema measured after 4 hr relative to control; type: functional
[22] = system: Rattus norvegicus; assay: Anti-inflammatory activity against Carrageenan-induced paw edema in PO dosed Wistar albino rat assessed as fold increase in inhibition of […] measured after 1 hr relative to celecoxib; type: functional
[23] = biological target: T1, Prostaglandin G/H synthase 2 (Homo sapiens, UniProt P35354); assay: Inhibition of COX-2 (unknown origin) at 10 uM
T1 sequence (P35354 whole entry): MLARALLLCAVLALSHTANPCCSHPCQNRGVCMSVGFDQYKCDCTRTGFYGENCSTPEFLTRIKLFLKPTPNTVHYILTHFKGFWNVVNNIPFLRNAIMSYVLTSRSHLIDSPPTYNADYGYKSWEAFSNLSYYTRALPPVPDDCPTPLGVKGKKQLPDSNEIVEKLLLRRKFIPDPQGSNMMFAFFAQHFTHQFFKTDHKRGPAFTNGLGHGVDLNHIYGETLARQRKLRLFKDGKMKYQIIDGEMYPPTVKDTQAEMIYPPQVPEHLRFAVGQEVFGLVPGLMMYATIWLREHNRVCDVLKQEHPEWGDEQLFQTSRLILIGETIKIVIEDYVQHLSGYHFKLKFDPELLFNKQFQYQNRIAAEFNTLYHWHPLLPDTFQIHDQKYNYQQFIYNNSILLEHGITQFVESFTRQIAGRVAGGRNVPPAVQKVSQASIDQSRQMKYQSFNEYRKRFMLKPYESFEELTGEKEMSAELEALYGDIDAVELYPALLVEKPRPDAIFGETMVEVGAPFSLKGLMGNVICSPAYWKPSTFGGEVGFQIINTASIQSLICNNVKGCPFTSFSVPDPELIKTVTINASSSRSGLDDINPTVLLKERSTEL

[24] = biological target: Prostaglandin G/H synthase 1 (Homo sapiens, UniProt P23219); assay: Inhibition of COX-1 (unknown origin) at 40 uM relative to control
[25] = system: Mus musculus; assay: Anti-inflammatory activity in Carrageenan-induced paw edema mouse model assessed as inhibition of granuloma measured after 24 hrs relative to control; type: functional
[26] = biological target: T1, Prostaglandin G/H synthase 2; assay: Inhibition of COX-2 (unknown origin) assessed as inhibition at 10 uM
[27] = system: Rattus norvegicus; assay: Anti-inflammatory activity against formalin-induced foot paw edema in Wistar rat at 5 mg/kg, po assessed as inhibition of edema measured after 4 hr relative to control; type: functional
[28] = system: Rattus norvegicus; assay: Anti-inflammatory activity in Carrageenan-induced paw edema in Wistar albino rat assessed as reduction in paw edema measured after 3 hr relative to control; type: functional; parameters: scale not given: the % may be the effect or the level left
[29] = system: Rattus norvegicus; assay: Anti-inflammatory activity against Carrageenan-induced paw edema in PO dosed Wistar albino rat assessed as inhibition of edema measured after 4 hr relative to control; type: functional; parameters: scale not given: the % may be the effect or the level left
[30] = system: Rattus norvegicus; assay: Anti-inflammatory activity in Carrageenan-induced paw edema in Wistar albino rat assessed as reduction in paw edema measured after 2 hr relative to control; type: functional; parameters: scale not given: the % may be the effect or the level left
[31] = system: Rattus norvegicus; assay: Anti-inflammatory activity in Carrageenan-induced paw edema in Wistar albino rat assessed as reduction in paw edema measured after 1 hr relative to control; type: functional; parameters: scale not given: the % may be the effect or the level left
[32] = system: Rattus norvegicus; assay: Anti-ulcerative activity in aspirin induced Wistar rat ulcer model assessed as inhibition of ulcer index at 20 mg/kg,po; type: functional
[33] = system: Rattus norvegicus; assay: Anti-inflammatory activity against Carrageenan-induced paw edema in PO dosed Wistar albino rat assessed as inhibition of edema measured after 1 hr relative to control; type: functional; parameters: scale not given: the % may be the effect or the level left
[34] = system: Rattus norvegicus; assay: Anti-inflammatory activity in Carageenan-induced foot paw edema in Swiss albino rat assessed as reduction in volume of paw edema measured after 1 hr relative to control; type: functional; parameters: scale not given: the % may be the effect or the level left
[35] = system: Rattus norvegicus; assay: Anti-inflammatory activity in Carageenan-induced foot paw edema in Swiss albino rat assessed as reduction in volume of paw edema measured after 4 hr relative to control; type: functional; parameters: scale not given: the % may be the effect or the level left
[36] = system: Rattus norvegicus; assay: Anti-inflammatory activity in Carrageenan-induced paw edema in Wistar albino rat assessed as inhibition of edema measured after 3 hrs relative to control; type: functional
[37] = system: Rattus norvegicus; assay: Anti-inflammatory activity in Carageenan-induced foot paw edema in Swiss albino rat assessed as reduction in volume of paw edema measured after 2 hr relative to control; type: functional; parameters: scale not given: the % may be the effect or the level left
[38] = system: Rattus norvegicus; assay: Anti-inflammatory activity against Carrageenan-induced paw edema in PO dosed Wistar albino rat assessed as inhibition of edema measured after 2 hr relative to control; type: functional; parameters: scale not given: the % may be the effect or the level left
[39] = system: Rattus norvegicus; assay: Anti-inflammatory activity against Carrageenan-induced paw edema in Wistar albino rat ulcerogenic activity assessed as reduction in severity index; type: functional
[40] = system: Rattus norvegicus; assay: Anti-inflammatory activity in Carageenan-induced foot paw edema in Swiss albino rat assessed as reduction in volume of paw edema measured after 6 hr relative to control; type: functional; parameters: scale not given: the % may be the effect or the level left
[41] = system: Rattus norvegicus; assay: Anti-inflammatory activity in Carrageenan-induced paw edema in PO dosed Swiss albino rat model at 30 mg/kg assessed as inhibition in volume of edema measured after 1 hrs relative to control; type: functional
[42] = system: Rattus norvegicus; assay: Anti-inflammatory activity in Carageenan-induced paw edema Wistar rat model assessed as reduction in paw edema volume relative to control; type: functional; parameters: scale not given: the % may be the effect or the level left
[43] = system: Mus musculus; assay: Anti-inflammatory activity in Carrageenan-induced paw edema in PO dosed mouse at 100 mg/kg assessed as inhibition of edema measured after 3 hr relative to control; type: functional; parameters: scale not given: the % may be the effect or the level left

Prostaglandin G/H synthase 1, sequence (P23219 whole entry): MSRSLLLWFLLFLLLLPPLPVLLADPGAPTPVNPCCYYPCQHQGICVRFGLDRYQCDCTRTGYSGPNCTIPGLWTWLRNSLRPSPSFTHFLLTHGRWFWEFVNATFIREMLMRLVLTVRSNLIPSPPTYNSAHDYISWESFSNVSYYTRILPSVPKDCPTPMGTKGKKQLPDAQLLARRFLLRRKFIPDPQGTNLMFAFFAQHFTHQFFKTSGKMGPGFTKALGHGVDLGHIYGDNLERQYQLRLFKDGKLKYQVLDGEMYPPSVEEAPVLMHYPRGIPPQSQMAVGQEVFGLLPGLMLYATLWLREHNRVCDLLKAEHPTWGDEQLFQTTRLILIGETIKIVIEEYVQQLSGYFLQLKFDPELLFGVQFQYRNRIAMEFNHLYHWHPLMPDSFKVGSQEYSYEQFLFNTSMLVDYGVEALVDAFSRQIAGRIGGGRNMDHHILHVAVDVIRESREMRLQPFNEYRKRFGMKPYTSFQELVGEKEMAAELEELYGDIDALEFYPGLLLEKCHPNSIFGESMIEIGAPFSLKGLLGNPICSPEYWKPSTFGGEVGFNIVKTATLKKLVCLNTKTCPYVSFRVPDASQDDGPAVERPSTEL

CN1CCN(C(=O)c2cnn(-c3ccccc3)c2)CC1
Activity [1]: 39%
Activity [2]: 34%
Activity [3]: 36.5%
Activity [4]: 77.1 µL
Activity [5]: 37%
Activity [6]: 85.7 µL
Activity [7]: 19%
Activity [8]: 88.6 µL
Activity [9]: 3.3
Activity [10]: 2.6
Activity [11]: 34.5%
Activity [12]: 115.7 µL

O=c1[nH]c(-c2ccccn2)nc2sc3c(c12)CCCC3
Activity [13]: 70%

O=c1[nH]c(CCl)nc2sc3c(c12)CCCC3
Activity [14]: 90%
Activity [15]: 10%

CC1=NN(c2ccc(F)cc2)C(=O)/C1=N\Nc1ccc(-c2nc3ccccc3[nH]2)cc1
Activity [16]: 65%

NS(=O)(=O)c1ccc(N/N=C/c2cn(-c3ccc(S(N)(=O)=O)cc3)nc2-c2ccc(Cl)cc2)cc1
UI [17]: 2.72
ED50 [18]: 8 mg/kg
Activity [19]: 97.69%

Cc1nn(-c2ccccc2)c2c1C(c1ccccc1[N+](=O)[O-])C(C#N)=C(/N=C/c1ccccc1)O2 (stereo not drawn)
ED50 [20]: 858 µmol/kg

Nc1cc(-c2ccc(Cl)cc2)nn1C1=NC2C(C=NN2c2ccccc2)C(=O)N1c1ccccc1 (stereo not drawn)
inhibition in vivo at 10 mg/kg [21]: 90%
fold change (FC) [22]: 8

COc1ccc(/C=C2/SC(=S)C(Nc3nc4c(cnn4-c4ccccc4)c(=O)n3-c3ccccc3)C2=O)cc1OC (stereo not drawn)
pIC50 [23]: 6.11
pIC50 [24]: 5.45
inhibition (INH) [25]: 38.2%
pIC50 [26]: 6.43
inhibition in vivo at 5 mg/kg [27]: 57.4%

COc1ccc2c(c1)c(CC(=O)O)c(C)n2C(=O)c1ccc(Cl)cc1 [INDOMETHACIN]
Activity [28]: 57.79%
Activity [29]: 30.95%
Activity [30]: 50.81%
Activity [31]: 33.15%
UI [32]: 20.2
Activity [33]: 40%
Activity [34]: 43.3%
Activity [35]: 74.56%
inhibition (INH) [36]: 86.7%
Activity [37]: 56.8%
Activity [38]: 28.89%
Activity [39]: 1.96 mm
Activity [40]: 85.9%
inhibition in vivo at 30 mg/kg [41]: 71.2%
Activity [42]: 79.41%
Activity [43]: 47.76%
